{"source": "patent US20120183493A1", "about": "“NOVEL POLYMERS” (PharmaPatents Global Ltd., priority 2009, published 2012)", "key": {"[1]": {"tested_on": "fibroblasts from human hypertrophic scars", "details": "cited from earlier work; for proliferation of fibroblasts derived from hypertrophic scars: compound alone; for effect on AT II-stimulated increase in DNA synthesis: cultured fibroblasts, stimulation with AT II"}, "[2]": {"assay": "Solubility of the purified solid in organic solvents", "format": "physicochemical", "experimental": "4 g of captopril in 15 ml of toluene with 0.5 g of Novozyme lipase B from Candida antartica was stirred in a 100 ml round bottom flask fitted with a drying tube (containing 3 Å molecular sieves and indicator silica gel) for 48 hours at 110° C. using a hotplate and magnetic stirrer. 50 ml of THF was then added and the enzyme was removed by filtration.\n4 g of captopril lactone in 15 ml of toluene with 0.5 g of Novozyme lipase B from Candida antartica was stirred in a 100 ml round bottom flask fitted with a drying tube (containing 3 Å molecular sieves and indicator silica gel) for 48 hours at 110° C. using a hotplate and magnetic stirrer. 50 ml of THF was then added and the enzyme was removed by filtration."}, "hypertrophied scars": {"tested_on": "hypertrophied scars", "details": "topical application, animal model of pathologic scarring; cited from earlier work"}, "[3]": {"tested_on": "guinea pig gingival fibroblast cells", "details": "cited from earlier work"}, "keloid scar": {"tested_on": "keloid scar", "details": "cited from earlier work"}, "[4]": {"tested_on": "experimental hepatic fibrosis", "details": "rats; cited from earlier work"}, "dermal healing": {"tested_on": "dermal healing", "details": "by reducing fibrosis and improving collagen remodelling; cited from earlier work"}, "[5]": {"details": "phenytoin- or nifedipine-induced gingival fibroblasts"}}, "note": "Read-outs that look alike come from different tables or passages of the source."}
{"compound": "Cc1cc(Cn2cnc3c2C[C@@H](C(=O)O)N(C(=O)C(c2ccccc2)c2ccccc2)C3)ccc1N(C)C", "note": "[PD123319]", "values": [{"measurement": "proliferation of fibroblasts derived from hypertrophic scars", "setting": "[1]", "result": "did not influence"}, {"measurement": "effect on AT II-stimulated increase in DNA synthesis", "setting": "[1]", "result": "augmented"}]}
{"compound": "C[C@@H]1CSC(=O)[C@@H]2CCCN2C1=O", "note": "[captopril lactone]", "values": [{"measurement": "solubility in THF", "setting": "[2]", "result": "freely soluble"}, {"measurement": "solubility in chloroform", "setting": "[2]", "result": "freely soluble"}, {"measurement": "solubility in methanol", "setting": "[2]", "result": "freely soluble"}]}
{"compound": "C[C@H](CS)C(=O)N1CCC[C@H]1C(=O)O", "note": "[captopril]", "values": [{"measurement": "formation of hypertrophied scars", "setting": "hypertrophied scars", "result": "prevented the formation of hypertrophied scars"}, {"measurement": "solubility in THF", "setting": "[2]", "result": "freely soluble"}, {"measurement": "solubility in chloroform", "setting": "[2]", "result": "freely soluble"}, {"measurement": "solubility in methanol", "setting": "[2]", "result": "freely soluble"}, {"measurement": "development of induced proliferation", "setting": "[3]; [5]", "result": "inhibited the development of proliferation"}, {"measurement": "immunostaining intensities of immunoreactive angiotensin II", "setting": "[3]; [5]", "result": "reduced these enhanced immunostaining intensities to control levels"}]}
{"compound": "CCOC(=O)[C@H](CCc1ccccc1)N[C@@H](C)C(=O)N1CCC[C@H]1C(=O)O", "note": "[enalapril]", "values": [{"measurement": "keloid scar outcome", "setting": "keloid scar; first patient (co-author), 10 mg once daily", "result": "rapidly improved"}, {"measurement": "keloid scar outcome", "setting": "keloid scar; person with diabetes, same low dose, after six months of therapy", "result": "marked improvement"}]}
{"compound": "CCC[C@H](N[C@@H](C)C(=O)N1[C@H](C(=O)O)C[C@@H]2CCCC[C@@H]21)C(=O)OCC", "note": "[perindopril]", "values": [{"measurement": "progression of experimental hepatic fibrosis", "setting": "[4]", "result": "ameliorate progression"}]}
{"compound": "O=C1NC(=O)C(c2ccccc2)(c2ccccc2)N1", "note": "[phenyloin]", "values": [{"measurement": "proliferation of gingival fibroblast cells", "setting": "[3]; guinea pig gingival fibroblast cells", "result": "induced proliferation"}]}
{"compound": "CCCCC(=O)N(Cc1ccc(-c2ccccc2-c2nnn[nH]2)cc1)[C@H](C(=O)O)C(C)C", "note": "[valsartan]", "values": [{"measurement": "proliferation of fibroblasts derived from hypertrophic scars", "setting": "[1]", "result": "did not influence"}, {"measurement": "effect on AT II-stimulated increase in DNA synthesis", "setting": "[1]", "result": "inhibited"}, {"measurement": "progression of experimental hepatic fibrosis", "setting": "[4]", "result": "ameliorate progression"}]}
{"compound": "Ang(1-7): angiotensin peptide Ang(1-7) (DRVYIHP; Angiotensin 1-7; UniProt P01019 25-31, looked up, fragment)", "values": [{"measurement": "dermal healing following wounding", "setting": "dermal healing", "result": "accelerate dermal healing"}]}
